Source: the NIST ThermoML archive (doi:10.1016/j.jct.2007.07.005)

Assay: xn = mol fraction of the nth substance listed
Settings: Fluid (supercritical or subcritical phases), vibrating tube

CCCCCO [pentan-1-ol] + O=C=O
Settings | mass density [kg/m3]
313.11 K, 24020 kPa, x2 = 0.0816 | 821.33
313.11 K, 25023 kPa, x2 = 0.0816 | 822.02
313.12 K, 10002 kPa, x2 = 0.8573 | 809.77
313.12 K, 10012 kPa, x2 = 0.7274 | 838.41
313.12 K, 11010 kPa, x2 = 0.7274 | 841.91
313.12 K, 11023 kPa, x2 = 0.8573 | 818.98
313.12 K, 11998 kPa, x2 = 0.7274 | 845.15
313.12 K, 12025 kPa, x2 = 0.8573 | 826.77
313.12 K, 13005 kPa, x2 = 0.8573 | 833.59
313.12 K, 13032 kPa, x2 = 0.7274 | 848.39
313.12 K, 14012 kPa, x2 = 0.8573 | 839.94
313.12 K, 14027 kPa, x2 = 0.7274 | 851.37
313.12 K, 15004 kPa, x2 = 0.7274 | 854.2
313.12 K, 15004 kPa, x2 = 0.8573 | 845.66
313.12 K, 15995 kPa, x2 = 0.8573 | 851
313.12 K, 16022 kPa, x2 = 0.7274 | 857
313.12 K, 17007 kPa, x2 = 0.8573 | 856.08
313.12 K, 17019 kPa, x2 = 0.7274 | 859.65
313.12 K, 18013 kPa, x2 = 0.8573 | 860.84
313.12 K, 18018 kPa, x2 = 0.7274 | 862.21
313.12 K, 19038 kPa, x2 = 0.8573 | 865.44
313.12 K, 19055 kPa, x2 = 0.7274 | 864.78
313.12 K, 19966 kPa, x2 = 0.7274 | 866.98
313.12 K, 20008 kPa, x2 = 0.8573 | 869.59
313.12 K, 21008 kPa, x2 = 0.8573 | 873.67
313.12 K, 21014 kPa, x2 = 0.7274 | 869.44
313.12 K, 22009 kPa, x2 = 0.8573 | 877.54
313.12 K, 22029 kPa, x2 = 0.7274 | 871.77
313.12 K, 23015 kPa, x2 = 0.8573 | 881.34
313.12 K, 23059 kPa, x2 = 0.7274 | 874.05
313.12 K, 23995 kPa, x2 = 0.8573 | 884.88
313.14 K, 5019 kPa, x2 = 0.1347 | 808.85
313.14 K, 6010 kPa, x2 = 0.1347 | 809.58
313.14 K, 7003 kPa, x2 = 0.1347 | 810.4
313.14 K, 8042 kPa, x2 = 0.1347 | 811.24
313.14 K, 9023 kPa, x2 = 0.1347 | 812.05
313.14 K, 10012 kPa, x2 = 0.1347 | 812.85
313.14 K, 11019 kPa, x2 = 0.1347 | 813.62
313.14 K, 12025 kPa, x2 = 0.1347 | 814.42
313.14 K, 13017 kPa, x2 = 0.1347 | 815.18
313.14 K, 14011 kPa, x2 = 0.1347 | 815.96
313.14 K, 15011 kPa, x2 = 0.1347 | 816.73
313.14 K, 16014 kPa, x2 = 0.1347 | 817.47
313.14 K, 17041 kPa, x2 = 0.1347 | 818.22
313.14 K, 18022 kPa, x2 = 0.1347 | 818.95
313.14 K, 19022 kPa, x2 = 0.1347 | 819.67
313.14 K, 20012 kPa, x2 = 0.1347 | 820.39
313.14 K, 21027 kPa, x2 = 0.1347 | 821.12
313.14 K, 22024 kPa, x2 = 0.1347 | 821.83
313.14 K, 23011 kPa, x2 = 0.1347 | 822.55
313.14 K, 24032 kPa, x2 = 0.1347 | 823.28
313.14 K, 25004 kPa, x2 = 0.1347 | 824
313.17 K, 8123 kPa, x2 = 0.6054 | 838.39
313.17 K, 9084 kPa, x2 = 0.6054 | 840.4
313.17 K, 10125 kPa, x2 = 0.6054 | 842.5
313.17 K, 11050 kPa, x2 = 0.6054 | 844.32
313.17 K, 12045 kPa, x2 = 0.6054 | 846.23
313.17 K, 13094 kPa, x2 = 0.6054 | 848.18
313.17 K, 14054 kPa, x2 = 0.6054 | 849.93
313.17 K, 15019 kPa, x2 = 0.6054 | 851.65
313.17 K, 16045 kPa, x2 = 0.6054 | 853.41
313.17 K, 17046 kPa, x2 = 0.6054 | 855.12
313.17 K, 18027 kPa, x2 = 0.6054 | 856.75
313.17 K, 19070 kPa, x2 = 0.6054 | 858.44
313.17 K, 20036 kPa, x2 = 0.6054 | 859.99
313.17 K, 21030 kPa, x2 = 0.6054 | 861.55
313.17 K, 22042 kPa, x2 = 0.6054 | 863.12
313.17 K, 23036 kPa, x2 = 0.6054 | 864.64
313.17 K, 24020 kPa, x2 = 0.6054 | 866.12
313.17 K, 25040 kPa, x2 = 0.6054 | 867.64
322.89 K, 520 kPa, x2 = 0 | 792.06
322.89 K, 1010 kPa, x2 = 0 | 792.47
322.89 K, 2005 kPa, x2 = 0 | 793.27
322.89 K, 3007 kPa, x2 = 0 | 794.07
322.89 K, 4005 kPa, x2 = 0 | 794.86
322.89 K, 5018 kPa, x2 = 0 | 795.63
322.89 K, 6001 kPa, x2 = 0 | 796.42
322.89 K, 7016 kPa, x2 = 0 | 797.2
322.89 K, 8020 kPa, x2 = 0 | 797.97
322.89 K, 8997 kPa, x2 = 0 | 798.71
322.89 K, 10001 kPa, x2 = 0 | 799.47
322.89 K, 11005 kPa, x2 = 0 | 800.21
322.89 K, 11996 kPa, x2 = 0 | 800.95
322.89 K, 13002 kPa, x2 = 0 | 801.68
322.89 K, 14013 kPa, x2 = 0 | 802.4
322.89 K, 15005 kPa, x2 = 0 | 803.11
322.89 K, 16014 kPa, x2 = 0 | 803.82
322.89 K, 17001 kPa, x2 = 0 | 804.51
322.89 K, 18016 kPa, x2 = 0 | 805.21
322.89 K, 19012 kPa, x2 = 0 | 805.89
322.89 K, 19992 kPa, x2 = 0 | 806.56
322.89 K, 21036 kPa, x2 = 0 | 807.26
322.89 K, 22003 kPa, x2 = 0 | 807.92
322.89 K, 23024 kPa, x2 = 0 | 808.61
322.89 K, 23994 kPa, x2 = 0 | 809.26
322.89 K, 25023 kPa, x2 = 0 | 810
323.05 K, 3011 kPa, x2 = 0.0816 | 797.79
323.05 K, 4020 kPa, x2 = 0.0816 | 798.67
323.05 K, 5030 kPa, x2 = 0.0816 | 799.53
323.05 K, 6018 kPa, x2 = 0.0816 | 800.37
323.05 K, 7017 kPa, x2 = 0.3624 | 815.3
323.05 K, 7023 kPa, x2 = 0.0816 | 801.2
323.05 K, 8013 kPa, x2 = 0.0816 | 802.02
323.05 K, 8029 kPa, x2 = 0.4651 | 820.04
323.05 K, 8051 kPa, x2 = 0.3624 | 816.51
323.05 K, 9009 kPa, x2 = 0.4651 | 821.63
323.05 K, 9023 kPa, x2 = 0.0816 | 802.84
323.05 K, 9034 kPa, x2 = 0.3624 | 817.64
323.05 K, 9991 kPa, x2 = 0.4651 | 823.23
323.05 K, 10026 kPa, x2 = 0.0816 | 803.67
323.05 K, 10029 kPa, x2 = 0.3624 | 818.77
323.05 K, 11006 kPa, x2 = 0.0816 | 804.46
323.05 K, 11012 kPa, x2 = 0.4651 | 824.81
323.05 K, 11015 kPa, x2 = 0.8067 | 800.23
323.05 K, 11022 kPa, x2 = 0.3624 | 819.83
323.05 K, 11033 kPa, x2 = 0.9757 | 625.72
323.05 K, 11992 kPa, x2 = 0.0816 | 805.23
323.05 K, 11993 kPa, x2 = 0.4651 | 826.28
323.05 K, 11995 kPa, x2 = 0.9757 | 668.32
323.05 K, 12003 kPa, x2 = 0.3624 | 820.86
323.05 K, 12032 kPa, x2 = 0.8067 | 808.05
323.05 K, 13015 kPa, x2 = 0.3624 | 821.9
323.05 K, 13017 kPa, x2 = 0.9757 | 699.41
323.05 K, 13024 kPa, x2 = 0.4651 | 827.83
